Measured values taken from PubChem BioAssay (NCI).
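How tested: cells in 96-well plates exposed to compound for 48 hours at five concentrations. Here, GI50 denotes the concentration required for 50% inhibition of growth. TGI is the concentration that stops growth completely.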

Columns and labels:
Assay in all cases: DTP human tumour cell line panel, 48 h
[1] = tested on: HCT-116 colon
[2] = tested on: A549 NSCLC
[3] = tested on: NCI-H460 lung
[4] = tested on: HCT-15 colon
[5] = tested on: SNB-19 CNS
[6] = tested on: LOX IMVI melanoma
[7] = tested on: MALME-3M melanoma
[8] = tested on: TK-10 renal
[9] = tested on: UACC-62 melanoma
[10] = tested on: HOP-18 NSCLC

Q: Which GI50 [1] does the source give for `CCOC(=O)c1cc(NS(=O)(=O)c2ccccc2)cc(C(=O)OCC)c1` here?
A: > 100 µM

Q: And the TGI [1]?
A: > 100 µM

Q: And the GI50 [2]?
A: > 100 µM

Q: And the TGI [2]?
A: > 100 µM

Q: What about the GI50 [3] of the same molecule?
A: > 100 µM

Q: And the TGI [3]?
A: > 100 µM

Q: What about the GI50 [4] of the same molecule?
A: > 100 µM

Q: What about the TGI [4] of the same molecule?
A: > 100 µM

Q: And the GI50 [5]?
A: > 100 µM

Q: What about the TGI [5] of the same molecule?
A: > 100 µM

Q: What about the GI50 [6] of the same molecule?
A: > 100 µM

Q: And the TGI [6]?
A: > 100 µM

Q: And the GI50 [7]?
A: > 100 µM

Q: And the TGI [7]?
A: > 100 µM

Q: What about the GI50 [8] of the same molecule?
A: > 100 µM

Q: And the TGI [8]?
A: > 100 µM

Q: What about the GI50 [9] of the same molecule?
A: > 100 µM

Q: What about the TGI [9] of the same molecule?
A: > 100 µM

Q: For `Nc1nc2c(c3ncncc13)C(c1cccc(C(F)(F)F)c1)Cc1ncncc1-2` (stereo unspecified), which GI50 [1] is on record?
A: 4.85 µM

Q: What about the TGI [1] of the same molecule?
A: 37 µM

Q: And the GI50 [2]?
A: 5.45 µM

Q: What about the TGI [2] of the same molecule?
A: > 100 µM

Q: And the GI50 [3]?
A: 3.96 µM

Q: What about the TGI [3] of the same molecule?
A: > 100 µM

Q: What about the GI50 [4] of the same molecule?
A: 3.57 µM

Q: What about the TGI [4] of the same molecule?
A: > 100 µM

Q: What about the GI50 [5] of the same molecule?
A: 4.88 µM

Q: What about the TGI [5] of the same molecule?
A: 33.2 µM

Q: And the GI50 [6]?
A: 5.36 µM

Q: And the TGI [6]?
A: 21.1 µM

Q: And the GI50 [7]?
A: 10.2 µM

Q: And the TGI [7]?
A: 44.7 µM

Q: And the GI50 [8]?
A: 9.05 µM

Q: What about the TGI [8] of the same molecule?
A: 79.4 µM

Q: And the GI50 [9]?
A: 3.86 µM

Q: And the TGI [9]?
A: 17.6 µM

Q: What does the source list for `O=[N+]([O-])C1C2C=CC(C2)[C@H]1c1ccco1` (stereo partly specified)?
A: TGI [1]: > 100 µM; TGI [2]: > 100 µM; TGI [3]: > 100 µM; TGI [4]: > 100 µM; TGI [5]: > 100 µM; TGI [6]: > 100 µM; TGI [7]: > 100 µM; TGI [8]: > 100 µM; TGI [9]: > 100 µM

Q: Which results are given for `COc1ccc2c(c1)/C(=C\c1c(C)nc3sccn13)C(=O)N2`?
A: TGI [1]: > 31.8 µM; GI50 [2]: 0.155 µM; TGI [2]: > 100 µM; TGI [3]: > 100 µM; GI50 [4]: < 0.0468 µM; TGI [4]: > 27.1 µM; GI50 [5]: 0.525 µM; TGI [5]: > 100 µM; GI50 [6]: < 0.01 µM; TGI [6]: > 100 µM; GI50 [7]: < 0.0478 µM; TGI [7]: 97.4 µM; TGI [8]: > 63.5 µM; GI50 [9]: < 0.0356 µM; TGI [9]: 3.35 µM

Q: With `N#Cc1c(N2CCCC2)[nH]c(=O)c(C(c2c(Cl)cccc2Cl)c2c(O)c(C#N)c(N3CCCC3)[nH]c2=O)c1O` as the molecule, how does the GI50 [1] read?
A: 14.7 µM

Q: What about the TGI [1] of the same molecule?
A: 40 µM

Q: What about the GI50 [2] of the same molecule?
A: 18.8 µM

Q: What about the TGI [2] of the same molecule?
A: 36 µM

Q: What about the GI50 [3] of the same molecule?
A: 18.2 µM

Q: What about the TGI [3] of the same molecule?
A: 38.4 µM

Q: And the GI50 [4]?
A: 7.7 µM

Q: What about the TGI [4] of the same molecule?
A: 26.9 µM

Q: What about the GI50 [5] of the same molecule?
A: 4.24 µM

Q: What about the TGI [5] of the same molecule?
A: 18.2 µM

Q: And the GI50 [6]?
A: 11.6 µM

Q: What about the TGI [6] of the same molecule?
A: 37.2 µM

Q: And the GI50 [7]?
A: 19.3 µM

Q: What about the TGI [7] of the same molecule?
A: 36.4 µM

Q: And the GI50 [8]?
A: 12.4 µM

Q: And the TGI [8]?
A: 29.6 µM

Q: What about the GI50 [9] of the same molecule?
A: 4.71 µM

Q: And the TGI [9]?
A: 20.5 µM

Q: How did the TGI [1] turn out when `CC1C=C(OC(=O)c2ccccc2)C(=O)C(n2cc(F)c(=O)[nH]c2=O)O1` (stereo unspecified) was run?
A: > 100 µM

Q: And the TGI [2]?
A: > 100 µM

Q: And the TGI [3]?
A: > 100 µM

Q: And the TGI [4]?
A: > 100 µM

Q: And the TGI [5]?
A: > 100 µM

Q: What about the TGI [10] of the same molecule?
A: > 100 µM

Q: And the TGI [7]?
A: > 100 µM

Q: And the TGI [8]?
A: > 100 µM

Q: What about the TGI [9] of the same molecule?
A: > 100 µM

Q: Which results are given for `Oc1cccc2ccc(N/N=C/c3cc(CN4CCCCC4)c(O)c4ncccc34)nc12`?
A: GI50 [1]: 0.0426 µM; TGI [1]: 1.71 µM; GI50 [2]: 0.0365 µM; TGI [2]: 1.15 µM; GI50 [3]: 0.0386 µM; TGI [3]: 1.67 µM; GI50 [4]: 0.0339 µM; TGI [4]: 1.51 µM; GI50 [5]: 0.0413 µM; TGI [5]: 18.7 µM; GI50 [6]: 0.0553 µM; TGI [6]: 1.61 µM; GI50 [7]: 0.223 µM; TGI [7]: 4.49 µM; GI50 [8]: 0.0527 µM; TGI [8]: 11 µM; GI50 [9]: 0.0459 µM; TGI [9]: 4.9 µM

Q: `CN1CCC(n2cnc(-c3ccc(F)cc3)c2-c2ccnc(NCCO)n2)CC1` was tested. Which GI50 [1] did it give?
A: 14.5 µM

Q: And the TGI [1]?
A: > 25 µM

Q: And the GI50 [2]?
A: 11.9 µM

Q: And the TGI [2]?
A: > 25 µM

Q: And the GI50 [3]?
A: 9.54 µM

Q: What about the TGI [3] of the same molecule?
A: > 25 µM

Q: And the GI50 [4]?
A: 20.7 µM

Q: And the TGI [4]?
A: > 25 µM

Q: What about the GI50 [5] of the same molecule?
A: > 25 µM

Q: What about the TGI [5] of the same molecule?
A: > 25 µM

Q: What about the GI50 [6] of the same molecule?
A: 13.8 µM

Q: And the TGI [6]?
A: > 25 µM

Q: And the GI50 [7]?
A: 23.8 µM

Q: What about the TGI [7] of the same molecule?
A: > 25 µM

Q: And the GI50 [8]?
A: > 20.3 µM

Q: And the TGI [8]?
A: > 25 µM

Q: And the GI50 [9]?
A: > 21.6 µM

Q: What about the TGI [9] of the same molecule?
A: > 25 µM

Q: With `O=C(NCCO)Nc1ccc(-c2nc(N3CCOCC3)c3cccn3n2)cc1` as the molecule, how does the GI50 [1] read?
A: 1.85 µM

Q: And the TGI [1]?
A: > 100 µM

Q: And the GI50 [2]?
A: 2.07 µM

Q: What about the TGI [2] of the same molecule?
A: 18.3 µM

Q: What about the GI50 [3] of the same molecule?
A: 0.19 µM

Q: What about the TGI [3] of the same molecule?
A: > 100 µM

Q: And the GI50 [4]?
A: 0.359 µM

Q: And the TGI [4]?
A: > 100 µM

Q: What about the GI50 [5] of the same molecule?
A: 2.14 µM

Q: And the TGI [5]?
A: > 100 µM

Q: And the GI50 [6]?
A: 0.693 µM

Q: What about the TGI [6] of the same molecule?
A: 35.3 µM

Q: And the TGI [7]?
A: 0.0506 µM

Q: What about the GI50 [8] of the same molecule?
A: 0.0935 µM

Q: What about the TGI [8] of the same molecule?
A: 2.64 µM

Q: What about the GI50 [9] of the same molecule?
A: 0.0809 µM

Q: What about the TGI [9] of the same molecule?
A: 1.84 µM

Q: How did the TGI [1] turn out when `CCN(CC)c1ccc(C(=O)c2ccccc2C(=O)O)c(O)c1` was run?
A: > 100 µM

Q: What about the TGI [2] of the same molecule?
A: > 100 µM

Q: And the TGI [3]?
A: > 100 µM

Q: What about the TGI [4] of the same molecule?
A: > 100 µM

Q: What about the TGI [5] of the same molecule?
A: > 100 µM

Q: And the TGI [6]?
A: > 100 µM

Q: What about the TGI [7] of the same molecule?
A: > 100 µM

Q: And the TGI [8]?
A: > 100 µM

Q: And the TGI [9]?
A: > 100 µM

Q: For `CCCNC1=C(C(=O)OCC)C(=O)CO1`, which TGI [1] is on record?
A: > 100 µM

Q: And the TGI [2]?
A: > 100 µM

Q: And the TGI [3]?
A: > 100 µM

Q: What about the TGI [4] of the same molecule?
A: > 100 µM

Q: What about the TGI [5] of the same molecule?
A: > 100 µM

Q: What about the TGI [6] of the same molecule?
A: > 100 µM

Q: And the TGI [7]?
A: > 100 µM

Q: What about the TGI [8] of the same molecule?
A: > 100 µM

Q: And the TGI [9]?
A: > 100 µM

Q: What does the source list for `Cn1cc(-c2ccc3occ(-c4cccc(-c5ccncc5)c4)c3n2)cn1`?
A: GI50 [1]: 0.382 µM; TGI [1]: > 100 µM; GI50 [2]: 0.714 µM; TGI [2]: > 100 µM; GI50 [3]: 0.381 µM; TGI [3]: > 100 µM; GI50 [4]: 0.285 µM; TGI [4]: > 100 µM; GI50 [5]: 1.21 µM; TGI [5]: > 100 µM; GI50 [6]: 0.564 µM; TGI [6]: > 100 µM; GI50 [7]: 1.19 µM; TGI [7]: > 100 µM; GI50 [8]: 2.1 µM; TGI [8]: > 100 µM; GI50 [9]: 0.478 µM; TGI [9]: > 100 µM
